# Assay results reported in patent US12453735B2, “Treating cancer with a CCK receptor inhibitor and an immune checkpoint inhibitor” (GEORGETOWN UNIVERSITY, priority 2017, dated 2025).
# Entries after “also recorded” stand apart in the source; their conditions may differ.
# Legend:
# Panc02 cells [1] = test: Orthotopic Panc02 pancreatic tumors in immune competent C57BL/6 mice; format: in vivo, mouse
# Source text: (§1) Animal Models—Three different murine models were used in this investigation: 1) severe combined immune deficiency (B6.CB17-Prkdc^scid/SzJ; SCID) mice to study the role of CCKR blockade on orthotopic cancer growth and metastasis independent of immune cells, 2) immune competent Pdx1-Cre/LSL-Kras^G12D transgenic mice for a pancreatic carcinogenesis model to study the role of CCKR blockade on the pancreatic stellate cells and immune cells of the pancreas, and 3) immune competent C57BL/6 mice to study the role of CCKR antagonist in combination with immune checkpoint antibodies on growth and survival of mice bearing syngeneic PDAC tumors. Institutional guidelines for care and use of laboratory animals were followed throughout the study in accordance with protocols approved by the Georgetown University Institutional Animal Use and Care Committee.
# (§2) Four weeks after tumor inoculation mice were euthanized, tumors removed and weighed, and the number of metastases counted. TILs were evaluated in tumors of the C57BL/6 mice by immunohistochemistry and fibrosis assessed with Masson's trichrome stain.
# [2] = tested on: pancreas of Pdx1-Cre/LSL-Kras^G12D transgenic mouse; test: Pancreatic carcinogenesis model, Pdx1-Cre/LSL-Kras^G12D transgenic mice; format: in vivo; settings: proglumide in drinking water for 4 months
# Source text: as §1
# The second series of experiments was performed to analyze the role of CCKR antagonist monotherapy on the TILs of the pancreas microenvironment during pancreatic carcinogenesis using the Pdx1-Cre/LSL-Kras^G12D transgenic mouse. After the mice reached 3-4 months of age, when PanINs and fibrosis are established, mice were treated with either proglumide (in the drinking water) or untreated water. After 4 months of therapy, the pancreata were excised and compared to the pancreas of age-matched litter mates of mice on untreated water. […]
# Panc02 cells [3] = settings: 2×10^6 Panc02 cells, vs PBS
# Method: (§3) Cells were cultured in DMEM: F12 media with 10% FBS. […] In the following series of experiments Panc02 cells (1×10^6 or 2×10^6) were injected either orthotopically or subcutaneously in animals.
# (§4) Subcutaneous tumor volumes were measured with calipers weekly in animals bearing subcutaneous tumors using the formula Length×(width)^2×0.5.
# (§5) Treatments—Two different CCK receptor antagonists were used in this investigation. […] The other CCK receptor antagonist used was proglumide which is an orally bioavailable nonselective antagonist that blocks both the CCK-A and CCK-B receptors. Proglumide (Tocris Bioscience) was administered in the drinking water at a concentration of 0.1 mg/mL, or approximately 30 mg/kg/d per mouse.
# Two immune checkpoint blockade antibodies were used in this investigation. […] The antibody to cytotoxic T-lymphocyte-associated antigen 4 (CTLA-4 Ab; Bio-X cell, West Lebanon, NH) was given at a dose of 200 μg every 3 days by intraperitoneal injections.
# Another series of experiments was performed in C57BL/6 mice to evaluate the role of CCKR blockade in combination with immune checkpoint antibody therapy. Each series of experiments was performed using 40 mice with syngeneic murine tumors. […]
# Comparisons were made by ANOVA and student's t-test. […] Survival was analyzed by Kaplan Meier analysis and differences by hazard ratios using Prism Software (GraphPad software, Inc., San Diego, CA). […]
# CCK-B receptor = molecular target: T1, CCK-B receptor (Homo sapiens, UniProt P32239); settings: cited from earlier work
# T1 sequence (P32239 1-447): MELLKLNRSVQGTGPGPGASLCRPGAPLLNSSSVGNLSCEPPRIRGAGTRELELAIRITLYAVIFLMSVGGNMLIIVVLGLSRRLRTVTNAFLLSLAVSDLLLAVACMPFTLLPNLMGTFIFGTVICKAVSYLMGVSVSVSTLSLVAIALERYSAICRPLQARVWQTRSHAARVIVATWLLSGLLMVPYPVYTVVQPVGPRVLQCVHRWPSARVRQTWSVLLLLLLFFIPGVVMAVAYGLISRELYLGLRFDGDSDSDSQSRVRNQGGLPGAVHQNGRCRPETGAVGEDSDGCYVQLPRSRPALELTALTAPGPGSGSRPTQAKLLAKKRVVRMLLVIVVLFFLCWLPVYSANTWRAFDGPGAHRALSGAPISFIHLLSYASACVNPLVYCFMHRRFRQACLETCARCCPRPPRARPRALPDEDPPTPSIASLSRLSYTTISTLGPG
# [4] = cited from earlier work
# CCK-A receptor = molecular target: T2, CCK-A receptor (Homo sapiens, UniProt P32238); settings: cited from earlier work
# T2 sequence (P32238 1-428): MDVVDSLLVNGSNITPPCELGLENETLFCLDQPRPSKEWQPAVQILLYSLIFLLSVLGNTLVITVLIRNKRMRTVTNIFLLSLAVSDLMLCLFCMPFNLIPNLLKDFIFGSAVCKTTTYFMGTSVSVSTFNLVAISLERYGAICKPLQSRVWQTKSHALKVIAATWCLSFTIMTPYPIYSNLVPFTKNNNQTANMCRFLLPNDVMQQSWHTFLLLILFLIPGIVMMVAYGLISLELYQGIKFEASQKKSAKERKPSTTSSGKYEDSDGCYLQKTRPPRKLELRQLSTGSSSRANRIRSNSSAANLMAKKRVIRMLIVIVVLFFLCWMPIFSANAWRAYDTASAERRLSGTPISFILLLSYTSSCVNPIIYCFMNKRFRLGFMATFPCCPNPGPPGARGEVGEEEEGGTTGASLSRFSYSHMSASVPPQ
# Panc02 cells [5] = test: Orthotopic Panc02 pancreatic tumors in SCID mice; format: in vivo, mouse
# Source text: as §1, §2
# Panc02 cells [6] = test: Subcutaneous Panc02 tumors in C57BL/6 mice, CCKR antagonist and PD-1 antibody; format: in vivo, mouse; settings: vs PBS; for tumor size / tumor volume: Panc02 in C57BL/6, L364,718 4 mg/kg tiw ip, PD-1 antibody 125 μg×3 injections
# Method: as §3, §5
# (§6) Two immune checkpoint blockade antibodies were used in this investigation. The antibody to the programmed cell death protein 1 (PD1-Ab) (Bio X cell, West Lebanon, NH) was administered intraperitoneally to mice at a dose of either 125 μg×3 injections or 200 μg every 3 days.
# (§7) Another series of experiments was performed in C57BL/6 mice to evaluate the role of CCKR blockade in combination with immune checkpoint antibody therapy. Each series of experiments was performed using 40 mice with syngeneic murine tumors. […] The primary end point was tumor volume (1,000 mm^3) or mouse survival. Tumors were excised and examined histologically, and by immunohistochemistry, or by flow cytometry for immune cells.
# (§8) Tumor sections were also stained with either CD3 antibodies (1:85; DAKO, Carpinteria, CA); CD8 antibodies (1:75; eBioscience, San Diego, CA); CD4 antibodies (1:225; eBioscience), or FoxP3 antibody (1:30; eBioscience) and immunoreactive cells counted manually.
# pancreatic primary tumor = settings: immune competent mouse, 4 mg/kg three times weekly ip; cited from earlier work
# pancreatic cancer tumor = settings: immune deficient nude mouse, 2 mg/kg twice daily; cited from earlier work
# Panc02 cells [7] = test: Survival and tumor immune cells of C57BL/6 mice bearing subcutaneous Panc02 tumors, CCKR antagonist and CTLA-4 antibody
# Method: as §3, §5, §6, §7, §8
# [8] = Panc02 tumors, immunohistochemistry
# Method for mT3 cells: The cell line is also syngeneic to C57BL/6 mice; and therefore, capable of being studied in immune competent mice.
# as §4
# Proglumide (Tocris Bioscience) was administered in the drinking water at a concentration of 0.1 mg/mL, or approximately 30 mg/kg/d per mouse.
# The antibody to the programmed cell death protein 1 (PD1-Ab) (Bio X cell, West Lebanon, NH) was administered intraperitoneally to mice at a dose of either 125 μg×3 injections or 200 μg every 3 days.
# In the 4th experiment, the mT3 cells (1×10^5) were injected and mice were treated with PBS, proglumide, the PD-1 antibody, or the combination of both compounds. […] The primary end point was tumor volume (1,000 mm^3) or mouse survival. Tumors were excised and examined histologically, and by immunohistochemistry, or by flow cytometry for immune cells.
# Some tumors were stained with an antibody to α-SMA (Abeam; Ab124964 at 1:6000). Tumor sections were also stained with either CD3 antibodies (1:85; DAKO, Carpinteria, CA); CD8 antibodies (1:75; eBioscience, San Diego, CA); CD4 antibodies (1:225; eBioscience), or FoxP3 antibody (1:30; eBioscience) and immunoreactive cells counted manually.
smiles,measurement,setting,value
CCCN(CCC)C(=O)C(CCC(=O)O)NC(=O)c1ccccc1 (stereo not shown) [proglumide],fibrosis of tumor microenvironment (Masson's trichrome stain),"Panc02 cells [1]; orthotopic Panc02 tumors, vs PBS/vehicle",marked decreased fibrosis
same,fibrosis of the pancreas microenvironment (trichrome stain),[2]; vs age-matched controls,significantly diminished fibrosis; also recorded: significantly reversed fibrosis
same,CD3+ cells in mouse pancreas,[2]; vs untreated water,significant increase in the CD3+ cells
same,prolonged life,Panc02 cells [3],5 days
same,survived longer than PBS control mice,"mT3 cells; mT3 pancreatic cancers, average",12 days
same,number of Foxp3+ cells (Tregs),"mT3 cells; mT3 tumors, vs PBS",decreased
same,tumor-associated fibrosis by Masson's trichrome stain,"mT3 cells; mT3 tumors, vs PBS",noticeably less
same,α-SMA immunoreactivity (activated fibroblasts),"mT3 cells; mT3 tumors, vs PBS","somewhat decreased with proglumide, but this change was not statistically significant"
same,quantitative analysis of intratumoral fibrosis,"mT3 cells; mT3 tumors, vs PBS controls and PD-1 monotherapy, p<0.01",significantly less fibrosis
same,growth of mT3 tumors / tumor size,"mT3 cells; proglumide 0.1 mg/mL drinking water, PD-1 antibody 200 μg every three days, vs PBS",significantly slowed tumor growth; also recorded: significantly slower
same,antagonism at the CCK-B receptor,CCK-B receptor,inhibitory properties at both the CCK-A and CCK-B receptor types
same,water solubility,[4],water soluble
same,antagonism at the CCK-A receptor,CCK-A receptor,weaker nonselective CCK antagonist
"CN1C(=O)[C@@H](NC(=O)c2cc3ccccc3[nH]2)N=C(c2ccccc2)c2ccccc21 [L364,718, Devazepide]",primary tumor weight,"Panc02 cells [5]; orthotopic 10^6 Panc02 cells, 4 mg/kg three times a week ip, four weeks, vs PBS",significantly reduced the primary tumor weight
same,metastases,"Panc02 cells [5]; orthotopic Panc02, 4 mg/kg three times a week ip, 75% of untreated SCID mice had metastases",no metastases
same,metastases,"Panc02 cells [1]; C57BL/6 mice, orthotopic Panc02, 4 mg/kg three times a week ip",decreased metastases
same,primary tumor size,"Panc02 cells [1]; C57BL/6 mice, orthotopic Panc02, 4 mg/kg three times a week ip, vs PBS",did not alter the primary tumor size
same,CD3+ lymphocytes in tumor by immunohistochemistry,"Panc02 cells [1]; orthotopic Panc02 tumors, C57BL/6 mice, vs PBS",significant increase in CD3+ lymphocytes
same,tumor size / tumor volume,Panc02 cells [6],did not significantly decrease the tumor size
same,tumor size / tumor volume,"Panc02 cells [6]; listed as L-364,718",not significantly smaller
same,CD4+ cells in tumor (immunohistochemistry),Panc02 cells [6]; Panc02 tumors,increased
same,CD8+ cells in tumor (immunohistochemistry),Panc02 cells [6]; Panc02 tumors,increased
same,inhibition of pancreatic primary tumor growth,pancreatic primary tumor,"insufficient dose, by itself, to inhibit pancreatic primary tumor growth"
same,number of metastases,pancreatic primary tumor,did decrease the number of metastases
same,pancreatic cancer tumor size,pancreatic cancer tumor,significant reduction in pancreatic cancer tumor size
same,average CD4+ cell numbers in tumor,Panc02 cells [7]; [8],increased
same,average CD8+ cell numbers in tumor,Panc02 cells [7]; [8],increased
same,mice still alive at day 50,"Panc02 cells [7]; subcutaneous Panc02, C57BL/6, all PBS controls had died by day 50",42%
